Source: patent publication US20200038513A1, “MODULATORS OF FAK PROTEOLYSIS AND ASSOCIATED METHODS OF USE” (ARVINAS OPERATIONS, INC., priority 2018, published 2020)

System: MDA-MB-231 cells
Test: RPPA (reverse phase protein array)
Format: cell-based, human
Experimental: RPPA analysis was performed by MD Anderson Cancer Center RPPA core facility.
Examination of the Molecular Signaling Events) and/or Downstream Pathways Responsible for the Migration and Invasion Effects Observed by Exemplary Compound Treatment. To pinpoint these observations to a molecular signaling event or specific downstream pathway, reverse phase protein array (RPPA) analysis was performed (Table 4).

## CNC(=O)c1ccc(Nc2ncc(C(F)(F)F)c(NCc3nccnc3N(C)S(C)(=O)=O)n2)cc1 [Defactinib, defactinib, reference compound]
1000nM
  rel. Protein level, Merlin: 99.3%
  rel. Protein level, Mnk1: 97.5%
  rel. Protein level, Myosin-11: 100.9%
  rel. Protein level, Myosin-IIa_pS1943: 108.6%
  rel. Protein level, Myt1: 94.5%
  rel. Protein level, N-Cadherin: 107.8%
  rel. Protein level, N-Ras: 93.7%
  rel. Protein level, NAPSIN-A: 99.4%
  rel. Protein level, NDRG1_pT346: 103.5%
  rel. Protein level, NDUFB4: 96.3%
  rel. Protein level, NF-kB-p65_pS536: 105.0%
  rel. Protein level, Notch1: 96.2%
  rel. Protein level, Notch3: 105.9%
  rel. Protein level, Oct-4: 100.5%
  rel. Protein level, P-Cadherin: 104.3%
  rel. Protein level, PAI-1: 106.1%
  rel. Protein level, PAICS: 98.7%
  rel. Protein level, PAK1: 107.0%
  rel. Protein level, PAK4: 95.5%
  rel. Protein level, PAR: 135.9%
  rel. Protein level, PARP: 98.0%
  rel. Protein level, PCNA: 88.7%
  rel. Protein level, PD-1: 107.0%
  rel. Protein level, PD-L1: 92.6%
  rel. Protein level, PDGFR-b: 138.5%
  rel. Protein level, PDHK1: 102.5%
  rel. Protein level, PDK1: 99.8%
  rel. Protein level, PDK1_pS241: 97.4%
  rel. Protein level, PEA-15: 98.7%
  rel. Protein level, PEA-15_pS116: 97.0%
  rel. Protein level, PI3K-p85: 100.0%
  rel. Protein level, PI3K-p110-a: 103.7%
  rel. Protein level, PI3K-p110-b: 98.5%
  rel. Protein level, PKA-a: 99.6%
  rel. Protein level, PKC-b-II_pS660: 98.6%
  rel. Protein level, PKC-delta_pS664: 100.9%
  rel. Protein level, PKCa: 110.1%
  rel. Protein level, PKM2: 106.2%
  rel. Protein level, PLC-gamma2_pY759: 97.2%
  rel. Protein level, PLK1: 82.1%
  rel. Protein level, PMS2: 98.6%
  rel. Protein level, PR: 100.3%
  rel. Protein level, PRAS40: 98.3%
  rel. Protein level, PRAS40_pT246: 90.7%
  rel. Protein level, PREX1: 105.2%
  rel. Protein level, PTEN: 108.6%
  rel. Protein level, Paxillin: 105.5%
  rel. Protein level, Pdcd4: 117.5%
  rel. Protein level, Porin: 95.2%
  rel. Protein level, RBM15: 103.9%
  rel. Protein level, RIP: 103.7%
  rel. Protein level, RPA32: 96.8%
  rel. Protein level, RPA32_pS4-S8: 93.9%
  rel. Protein level, RSK: 104.4%
  rel. Protein level, Rab11: 101.7%
  rel. Protein level, Rab25: 97.8%
  rel. Protein level, Rad50: 104.7%
  rel. Protein level, Rad51: 102.1%
  rel. Protein level, Raptor: 98.9%
  rel. Protein level, Rb: 93.9%
  rel. Protein level, Rb_pS807_S811: 84.3%
  rel. Protein level, Rheb: 91.7%
  rel. Protein level, Rictor: 111.8%
  rel. Protein level, Rictor_pT1135: 90.0%
  rel. Protein level, S6: 102.7%
  rel. Protein level, S6_pS235_S236: 50.9%
  rel. Protein level, S6_pS240_S244: 49.1%
  rel. Protein level, b-Actin: 101.1%
  rel. Protein level, b-Catenin: 100.0%
  rel. Protein level, b-Catenin_pT41_S45: 98.3%
  rel. Protein level, c-Abl: 109.1%
  rel. Protein level, c-IAP2: 94.3%
  rel. Protein level, c-Jun_pS73: 92.7%
  rel. Protein level, c-Kit: 101.5%
  rel. Protein level, c-Met_pY1234_Y1235: 98.9%
  rel. Protein level, c-Myc: 95.9%
  rel. Protein level, cdc2_pY15: 90.1%
  rel. Protein level, cdc25C: 98.2%
  rel. Protein level, eEF2: 94.8%
  rel. Protein level, eEF2K: 116.4%
  rel. Protein level, eIF4E: 105.5%
  rel. Protein level, eIF4E_pS209: 95.7%
  rel. Protein level, eIF4G: 95.8%
  rel. Protein level, mTOR: 92.1%
  rel. Protein level, mTOR_pS2448: 88.3%
  rel. Protein level, p21: 100.5%
  rel. Protein level, p27-Kip-1: 96.7%
  rel. Protein level, p27_pT198: 96.4%
  rel. Protein level, p38-MAPK: 94.3%
  rel. Protein level, p38_pT180_Y182: 100.6%
  rel. Protein level, p44-42-MAPK: 108.2%
  rel. Protein level, p53: 93.7%
  rel. Protein level, p70-S6K1: 111.0%
  rel. Protein level, p70-S6K_pT389: 95.5%
  rel. Protein level, p90RSK_pT573: 98.9%
Antibody SCD, 1000nM, n = 2
  rel. Protein level [%], SCD: 98.9%
Antibody SDHA, 1000nM, n = 2
  rel. Protein level [%], SDHA: 103.8%
Antibody SF2, 1000nM, n = 2
  rel. Protein level [%], SF2: 95.8%
Antibody SHP-2_pY542, 1000nM, n = 2
  rel. Protein level [%], SHP-2_pY542: 97.2%
Antibody SLC1A5, 1000nM, n = 2
  rel. Protein level [%], SLC1A5: 111.6%
Antibody SOD1-, 1000nM, n = 2
  rel. Protein level [%], SOD1-: 97.7%
Antibody SOD2, 1000nM, n = 2
  rel. Protein level [%], SOD2: 106.0%
Antibody STING, 1000nM, n = 2
  rel. Protein level [%], STING: 135.4%
Antibody Shc_pY317, 1000nM, n = 2
  rel. Protein level [%], Shc_pY317: 104.3%
Antibody Slfn11, 1000nM, n = 2
  rel. Protein level [%], Slfn11: 95.9%
Antibody Smac, 1000nM, n = 2
  rel. Protein level [%], Smac: 99.9%
Antibody Smad1, 1000nM, n = 2
  rel. Protein level [%], Smad1: 97.8%
Antibody Smad3, 1000nM, n = 2
  rel. Protein level [%], Smad3: 102.3%
Antibody Smad4, 1000nM, n = 2
  rel. Protein level [%], Smad4: 95.2%
Antibody Snail, 1000nM, n = 2
  rel. Protein level [%], Snail: 101.3%
Antibody Sox2, 1000nM, n = 2
  rel. Protein level [%], Sox2: 100.5%
Antibody Src, 1000nM, n = 2
  rel. Protein level [%], Src: 103.9%
Antibody Src_pY419, 1000nM, n = 2
  rel. Protein level [%], Src_pY419: 99.6%
Antibody Src_pY527, 1000nM, n = 2
  rel. Protein level [%], Src_pY527: 93.7%
Antibody Stat3, 1000nM, n = 2
  rel. Protein level [%], Stat3: 92.9%
Antibody Stat3_pY705, 1000nM, n = 2
  rel. Protein level [%], Stat3_pY705: 100.5%
Antibody Stat5a, 1000nM, n = 2
  rel. Protein level [%], Stat5a: 108.2%
Antibody Stathmin-1, 1000nM, n = 2
  rel. Protein level [%], Stathmin-1: 99.3%
Antibody Syk, 1000nM, n = 2
  rel. Protein level [%], Syk: 95.8%
Antibody TAZ, 1000nM, n = 2
  rel. Protein level [%], TAZ: 100.5%
Antibody TFAM, 1000nM, n = 2
  rel. Protein level [%], TFAM: 101.4%
Antibody TFRC, 1000nM, n = 2
  rel. Protein level [%], TFRC: 96.3%
Antibody TIGAR, 1000nM, n = 2
  rel. Protein level [%], TIGAR: 100.5%
Antibody TRIM25, 1000nM, n = 2
  rel. Protein level [%], TRIM25: 99.8%
Antibody TSC1, 1000nM, n = 2
  rel. Protein level [%], TSC1: 102.5%
Antibody TTF1, 1000nM, n = 2
  rel. Protein level [%], TTF1: 95.4%
Antibody TUFM, 1000nM, n = 2
  rel. Protein level [%], TUFM: 98.4%
Antibody TWIST, 1000nM, n = 2
  rel. Protein level [%], TWIST: 97.7%
Antibody Tau, 1000nM, n = 2
  rel. Protein level [%], Tau: 102.9%
Antibody Transglutaminase, 1000nM, n = 2
  rel. Protein level [%], Transglutaminase: 93.5%
Antibody Tuberin, 1000nM, n = 2
  rel. Protein level [%], Tuberin: 101.7%
Antibody Tuberin_pT1462, 1000nM, n = 2
  rel. Protein level [%], Tuberin_pT1462: 93.6%
Antibody Tyro3, 1000nM, n = 2
  rel. Protein level [%], Tyro3: 98.5%
Antibody U-Histone-H2B, 1000nM, n = 2
  rel. Protein level [%], U-Histone-H2B: 113.8%
Antibody UBAC1, 1000nM, n = 2
  rel. Protein level [%], UBAC1: 99.7%
Antibody UGT1A, 1000nM, n = 2
  rel. Protein level [%], UGT1A: 98.6%
Antibody ULK1_pS757, 1000nM, n = 2
  rel. Protein level [%], ULK1_pS757: 102.1%
Antibody VASP, 1000nM, n = 2
  rel. Protein level [%], VASP: 100.5%
Antibody VEGFR-2, 1000nM, n = 2
  rel. Protein level [%], VEGFR-2: 93.5%
Antibody VHL-EPPK1, 1000nM, n = 2
  rel. Protein level [%], VHL-EPPK1: 88.7%
Antibody WIPI1, 1000nM, n = 2
  rel. Protein level [%], WIPI1: 102.3%
Antibody WIPI2, 1000nM, n = 2
  rel. Protein level [%], WIPI2: 106.2%
Antibody Wee1, 1000nM, n = 2
  rel. Protein level [%], Wee1: 95.3%
Antibody Wee1_pS642, 1000nM, n = 2
  rel. Protein level [%], Wee1_pS642: 95.2%
Antibody XBP-1, 1000nM, n = 2
  rel. Protein level [%], XBP-1: 89.5%
Antibody XPA, 1000nM, n = 2
  rel. Protein level [%], XPA: 83.5%
Antibody XPF, 1000nM, n = 2
  rel. Protein level [%], XPF: 100.5%
Antibody XRCC1, 1000nM, n = 2
  rel. Protein level [%], XRCC1: 102.3%
Antibody YAP, 1000nM, n = 2
  rel. Protein level [%], YAP: 93.7%
Antibody YAP_pS127, 1000nM, n = 2
  rel. Protein level [%], YAP_pS127: 103.1%
Antibody YB1_pS102, 1000nM, n = 2
  rel. Protein level [%], YB1_pS102: 82.7%
Antibody ZAP-70, 1000nM, n = 2
  rel. Protein level [%], ZAP-70: 95.1%
